This note sets out measurements from patent US20070093548A1 (Wyeth, priority 2005, published 2007).

The test system of data set [1] is alkaline phosphatase activity in T47D cells. The experiment in a line: T47D Cell Alkaline Phosphatase Assay. The conditions noted are these: antagonist mode, in the presence of 1 nM progesterone, read-out: Example 18A 'T47D Cell Alkaline Phosphatase Assay' IC50. It is filed as cell-based, human. As for the experimental part:
A. Effects of Progestins and Antiprogestins on Alkaline Phosphatase Activity in T47D Cells—T47D Cell Alkaline Phosphatase Assay
The purpose of this assay is to identify progestins or antiprogestins by determining a compound's effect on alkaline phosphatase activity in T47D cells. The materials and methods are as follows.
Culture medium: DMEM:F12 (1:1) (GIBCO, BRL) supplemented with 5% (v/v) charcoal stripped fetal bovine serum (not heat-inactivated), 100 U/ml penicillin, 100 ug/ml streptomycin, and 2 mM GlutaMax (GIBCO, BRL).
Alkaline phosphatase assay buffer:
I. 0.1M Tris-HCl, pH 9.8, containing 0.2% Triton X-100
II. 0.1M Tris-HCl, pH 9.8, containing 4 mM p-nitrophenyl phosphate (Sigma).
Frozen T47D cells are thawed in a 37° C. water bath and diluted to 280,000 cells/ml in culture medium. To each well in a 96-well plate (Falcon, Becton Dickinson Labware), 180 μl of diluted cell suspension is added. 20 μl of reference or test compounds diluted in the culture medium is then added to each well. […] The cells are incubated at 37° C. in a 5% CO2/humidified atmosphere for 24 hours. NOTE: For high throughput screening, one concentration of each compound is tested at 0.3 μg/ml. Based on an average molecular weight of 300 g/mol for the compounds in the library, the concentration is approximately 1 μM.
At the end of treatment, the medium is removed from the plate. 50 μl of assay buffer I is added to each well. The plates are shaken in a titer plate shaker for 15 min. Then 150 μl of assay buffer II is added to each well.
Subsequent dose response data for screening hits will be evaluated as described below. Analysis of dose-response data. For reference and test compounds, a dose response curve is generated for dose (X-axis) vs. the rate of enzyme reaction (slope) (Y-axis). Square root-transformed data are used for analysis of variance and nonlinear dose response curve fitting for both agonist and antagonist modes. Huber weighting is used to downweight the effects of outliers. EC50 or IC50 values are calculated from the retransformed values.
Percent (%) of induction for agonists at the tested concentrations. […] The default concentration is in the nM range.

Data set [2] addresses T1, progesterone receptor (PR) (Homo sapiens, UniProt P06401).
T1 construct: in live, intact (whole) cells, using the human breast carcinoma T47D cell line; endogenous in cells; host or cells: T47D human breast carcinoma cells (live, intact)
T1 sequence (P06401 1-933): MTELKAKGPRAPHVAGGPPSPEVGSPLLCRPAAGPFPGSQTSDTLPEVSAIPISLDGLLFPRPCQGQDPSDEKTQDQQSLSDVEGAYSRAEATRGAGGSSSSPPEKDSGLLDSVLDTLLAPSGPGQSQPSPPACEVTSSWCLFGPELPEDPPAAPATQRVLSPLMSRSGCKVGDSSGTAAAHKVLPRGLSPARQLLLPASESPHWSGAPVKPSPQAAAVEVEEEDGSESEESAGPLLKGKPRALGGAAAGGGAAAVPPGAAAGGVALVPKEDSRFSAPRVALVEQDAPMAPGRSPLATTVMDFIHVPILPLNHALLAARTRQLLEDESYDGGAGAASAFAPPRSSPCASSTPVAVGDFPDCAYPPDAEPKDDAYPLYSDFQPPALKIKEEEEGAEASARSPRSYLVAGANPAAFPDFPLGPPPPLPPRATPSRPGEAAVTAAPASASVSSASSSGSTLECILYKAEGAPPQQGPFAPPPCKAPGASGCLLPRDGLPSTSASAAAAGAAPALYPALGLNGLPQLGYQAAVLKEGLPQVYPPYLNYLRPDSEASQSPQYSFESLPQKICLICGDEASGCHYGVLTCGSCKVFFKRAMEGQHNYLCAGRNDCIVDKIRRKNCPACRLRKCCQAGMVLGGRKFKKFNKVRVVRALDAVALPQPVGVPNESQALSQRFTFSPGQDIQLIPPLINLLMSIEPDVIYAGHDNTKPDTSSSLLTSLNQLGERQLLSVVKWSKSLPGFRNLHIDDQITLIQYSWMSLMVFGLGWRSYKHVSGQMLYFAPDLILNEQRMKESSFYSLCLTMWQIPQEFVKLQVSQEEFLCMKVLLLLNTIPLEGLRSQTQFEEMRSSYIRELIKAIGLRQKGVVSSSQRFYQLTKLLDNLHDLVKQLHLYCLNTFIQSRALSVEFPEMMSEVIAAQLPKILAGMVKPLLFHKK
Put plainly: Progesterone Receptor Whole Cell Competition Binding Assay Using T47D Cells. The conditions noted are these: 3H-progesterone 3 nM, read-out: Example 18B 'T47D PR whole cell binding Assay' IC50. On the procedure: 1. Culture medium: 5% RC: phenol red free DMEM:F12 (1:1) (GIBCO, BRL) supplemented with 5% (v/v) charcoal stripped fetal bovine serum (not heat-inactivated), 100 U/ml penicillin, 100 ug/ml streptomycin, and 2 mM GlutaMax (GIBCO, BRL).
2. T47D cell culture: T47D cells are maintained in 10% RC media at 37° C. in a 5% CO2/humidified atmosphere and need to be split twice weekly for proper response. Cells are plated in 10% RC the day before binding assay at 50,000 cells per well in the white, clear bottom plates purchased through VWR or Perkin Elmer.
Cells plated the day prior to the assay in white clear bottom plates are used. A master compound plate is set up containing control and test compounds at 20× final desired concentration for the competition binding. A typical dose range of 20× concentrations are (in nM); 200,000; 20,000; 6000; 2000; 600; 200; 20; and 2. Final concentrations are then (in nM); 10,000; 1000; 300; 100; 30; 10; 1; 0.1.
Media on cells is replaced with 180 μl of 5% RC. […] Compounds are incubated for 3 hrs at 37° C. […] Following incubation, media is carefully removed and cells are washed 3× with 200 μl 5% RC each wash. 50 μl of liquid scintillation cocktail is added and the plates are shaken vigorously for a minimum of 15 minutes.
Square root-transformed data are used for analysis of variance and calculation of IC50 SAS software (SAS Institute, Inc.) is used for all the statistical analysis.

In data set [3] the test system is alkaline phosphatase activity in T47D cells. The experiment in a line: T47D Cell Alkaline Phosphatase Assay. It is filed as cell-based. The conditions noted are these: Homo sapiens, read-out: Example 18A 'T47D Cell Alkaline Phosphatase Assay' Inhibition (%).

Read-outs that look alike come from different tables or passages of the source.

On to `CCC(C)c1c(OC)ccc2c1oc1ccc(C#N)cc12` (racemic) [Example 12, 6-sec-butyl-7-methoxydibenzo[b,d]furan-2-carbonitrile], for which the melting point fell in the range of 80 to 82 °C. Moreover, the IC50 in data set [1] (Homo sapiens, T47D, 24 h) was determined as 18.5 nM. For the same compound, the concentration for half-maximal inhibition (IC50) in data set [2] amounted to 59.7 nM.
On the same counts, the results for `CCC(C)c1c(O)ccc2c1oc1ccc(C#N)cc12` (racemic) [Example 13, 6-sec-butyl-7-hydroxydibenzo[b,d]furan-2-carbonitrile] are 206 to 207 °C, 19 nM and 36.7 nM.
In the case of `CCC(C)c1c(O)ccc2c1oc1ccc(C#N)cc12` (single isomer, unassigned; (+)) [Example 14, (+)-6-sec-butyl-7-hydroxydibenzo[b,d]furan-2-carbonitrile], the IC50 in data set [1] came out at 22 nM; in data set [2], 41.5 nM.
With `CCC(C)c1c(OC)ccc2c1oc1ccc(C#N)cc12` (single isomer, unassigned; (+)) [Example 16, (+)-6-sec-butyl-7-methoxydibenzo[b,d]furan-2-carbonitrile], in data set [1], the IC50 was found to be 13 nM.
In the case of `CCC(C)c1c(O)ccc2c1oc1ccc(C#N)cc12` (single isomer, unassigned; (-)) [Example 15, (−)-6-sec-butyl-7-hydroxydibenzo[b,d]furan-2-carbonitrile], the IC50 is 148 nM in data set [1] and 81.2 nM in data set [2].
Consider `CCC(C)c1c(OC)ccc2c1oc1ccc(C#N)cc12` (single isomer, unassigned; (-)) [Example 17, (−)-6-sec-butyl-7-methoxydibenzo[b,d]furan-2-carbonitrile], for which the 50% inhibitory concentration (IC50) in data set [1] was 30 nM.
Consider `COc1ccc2c(c1)oc1ccc(C#N)cc12` [Example 1, 7-methoxydibenzo[b,d]furan-2-carbonitrile], for which the IC50 in data set [1] (Homo sapiens, T47D, 24 h) is 259 nM.
Compound `N#Cc1ccc2oc3cc(O)ccc3c2c1` [Example 2, 7-hydroxydibenzo[b,d]furan-2-carbonitrile] had a melting point of 270 to 271 °C. The IC50 in data set [1] (Homo sapiens, T47D, 24 h) came out at 534 nM.
With `N#Cc1ccc2oc3c(Br)c(O)c(F)cc3c2c1` [Example 3, 6-bromo-8-fluoro-7-hydroxydibenzo[b,d]furan-2-carbonitrile], the melting point is 270 °C (dec.).
As for `Cc1ccccc1-c1c(O)c(F)cc2c1oc1ccc(C#N)cc12` [Example 4, 8-fluoro-7-hydroxy-6-(2-methylphenyl)dibenzo[b,d]furan-2-carbonitrile], the inhibition at 3 µM in data set [3] came out at 50%.
Take `N#Cc1ccc2oc3cc(O)c(F)cc3c2c1` [Example 6, 8-fluoro-7-hydroxydibenzo[b,d]furan-2-carbonitrile]: the melting point was 270 °C (dec.).
In turn, `COc1cc2oc3ccc(C#N)cc3c2cc1F` [Example 7, 8-fluoro-7-methoxydibenzo[b,d]furan-2-carbonitrile] yielded a melting point of 206 to 208 °C. The inhibition at 3 µM in data set [3] worked out at 65%.
Regarding `N#Cc1ccc2oc3c(-c4ccccc4F)c(O)c(F)cc3c2c1` [Example 8, 8-fluoro-6-(2-fluorophenyl)-7-hydroxydibenzo[b,d]furan-2-carbonitrile], the inhibition at 3 µM in data set [3] came to 40%.
`COc1ccc2c(oc3ccc(C#N)cc32)c1C(C)C` [Example 9, 6-isopropyl-7-methoxydibenzo[b,d]furan-2-carbonitrile]: the IC50 in data set [1] (Homo sapiens, T47D, 24 h) amounted to 48 nM.
`CC(C)c1c(O)ccc2c1oc1ccc(C#N)cc12` [Example 10, 7-hydroxy-6-isopropyldibenzo[b,d]furan-2-carbonitrile] had a melting point of 180 to 182 °C. In addition, in data set [1] (Homo sapiens, T47D, 24 h), the IC50 is 28 nM. Besides, the IC50 in data set [2] stood at 21.1 nM.
As to `N#Cc1ccc2oc3c(C4CCCC4)c(O)ccc3c2c1` [Example 11, 6-cyclopentyl-7-hydroxydibenzo[b,d]furan-2-carbonitrile], in data set [1] (Homo sapiens, T47D, 24 h), the IC50 turned out to be 50 nM.
